Experimental data as given in US20250195666A1, “MIR-142 COMPOUNDS AND USES THEREOF” (City of Hope, priority 2021, published 2025).

Tested on: miR-142^−/−BCR-ABL LSKs
Experimental: LSKs from diseased miR-142 null and miR-142 wt BCR-ABL mice were treated with CpG-M-miR-142 (2 μM) or SCR±NIL (2 μM) for 72 h.

Compound: Cc1cn(-c2cc(NC(=O)c3ccc(C)c(Nc4nccc(-c5cccnc5)n4)c3)cc(C(F)(F)F)c2)cn1 [NIL, nilotinib]
- apoptosis: lower apoptosis
- cell growth: higher cell growth
